{"source": "ChEMBL document CHEMBL4177697", "about": "“N-Me-trichodermamide B isolated from Penicillium janthinellum, with antioxidant properties through Nrf2-mediated signaling pathway” (Bioorg Med Chem, 2017)", "key": {"[1]": {"biological_target": "T1, Nuclear factor erythroid 2-related factor 2 (Homo sapiens) (UniProt Q16236)", "T1 sequence (whole entry)": "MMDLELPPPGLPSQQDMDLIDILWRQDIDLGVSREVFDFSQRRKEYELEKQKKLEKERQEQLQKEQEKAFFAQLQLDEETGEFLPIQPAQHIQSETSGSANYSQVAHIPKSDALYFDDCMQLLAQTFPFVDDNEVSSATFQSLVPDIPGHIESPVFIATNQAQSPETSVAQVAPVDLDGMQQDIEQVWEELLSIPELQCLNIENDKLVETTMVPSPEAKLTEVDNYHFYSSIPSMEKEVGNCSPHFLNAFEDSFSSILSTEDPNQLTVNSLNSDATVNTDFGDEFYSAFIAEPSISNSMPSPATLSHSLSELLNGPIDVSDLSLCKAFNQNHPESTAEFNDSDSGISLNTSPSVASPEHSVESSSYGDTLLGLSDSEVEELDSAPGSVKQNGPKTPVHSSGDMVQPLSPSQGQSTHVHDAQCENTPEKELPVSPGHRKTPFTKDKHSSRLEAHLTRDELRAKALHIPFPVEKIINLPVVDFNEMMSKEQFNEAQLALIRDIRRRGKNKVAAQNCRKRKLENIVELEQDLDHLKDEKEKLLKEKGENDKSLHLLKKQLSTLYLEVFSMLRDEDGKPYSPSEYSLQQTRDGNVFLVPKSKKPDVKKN", "assay": "Activation of Nrf2 in human HaCaT cells transfected with ARE-luciferase containing ARE consensus sequence assessed as Nrf2 binding to ARE at 20 uM after 6 hrs by luciferase reporter gene assay", "type": "cell-based"}, "HaCaT [2]": {"tested_on": "HaCaT", "assay": "Cytotoxicity against human HaCaT cells assessed as reduction in cell viability at 5 to 20 uM after 24 to 48 hrs by WST-8 assay", "type": "cell-based"}, "HaCaT [3]": {"tested_on": "HaCaT", "assay": "Cytoprotective activity against H2O2-induced cell damage in human HaCaT cells assessed as cell survival preincubated for 20 hrs followed by H2O2 addition measured after 4 hrs by WST-8 assay", "type": "functional, cell-based"}, "[4]": {"biological_target": "T1, Nuclear factor erythroid 2-related factor 2 (Homo sapiens)", "assay": "Activation of Nrf2 in human HaCaT cells assessed as increase in HO-1 expression level after 12 hrs by Western blot analysis", "type": "cell-based"}, "[5]": {"biological_target": "T1, Nuclear factor erythroid 2-related factor 2 (Homo sapiens)", "assay": "Activation of Nrf2 in human HaCaT cells assessed as increase in HO-1 expression level at 20 uM by Western blot analysis", "type": "cell-based", "settings": "TDE = time-dependent effect"}, "[6]": {"biological_target": "T1, Nuclear factor erythroid 2-related factor 2 (Homo sapiens)", "assay": "Activation of Nrf2 in human HaCaT cells assessed as increase in HO-1 mRNA expression after 12 hrs by RT-qPCR analysis", "type": "cell-based"}, "[7]": {"biological_target": "T1, Nuclear factor erythroid 2-related factor 2 (Homo sapiens)", "assay": "Activation of Nrf2 in human HaCaT cells assessed as increase in HO-1 mRNA expression at 20 uM by Western blot analysis", "type": "cell-based", "settings": "TDE = time-dependent effect"}, "[8]": {"biological_target": "T2, MAP kinase p38 (Homo sapiens) (UniProt O15264+Q15759+Q16539+P53778)", "assay": "Activation of MAPK p38 in human HaCaT cells assessed as upregulation of Nrf2 mRNA expression at 20 uM measured up to 6 hrs RT-qPCR analysis", "type": "cell-based"}, "[9]": {"biological_target": "T2, MAP kinase p38 (Homo sapiens)", "assay": "Activation of MAPK p38 in human HaCaT cells assessed as upregulation of Nrf2 mRNA expression measured up to 6 hrs RT-qPCR analysis", "type": "cell-based"}, "[10]": {"biological_target": "T2, MAP kinase p38 (Homo sapiens)", "assay": "Activation of MAPK p38 in human HaCaT cells assessed as nuclear translocation of Nrf2 at 10 uM measured after 6 hrs Western blot analysis", "type": "cell-based"}, "[11]": {"biological_target": "T2, MAP kinase p38 (Homo sapiens)", "assay": "Activation of MAPK p38 in human HaCaT cells assessed as nuclear translocation of Nrf2 at 20 uM after 6 hrs by DAPI staining-based immunofluorescence microscopic method", "type": "cell-based"}, "[12]": {"biological_target": "T2, MAP kinase p38 (Homo sapiens)", "assay": "Activation of MAPK p38 in human HaCaT cells assessed as nuclear translocation of Nrf2 measured after 6 hrs by Western blot analysis", "type": "cell-based"}, "HaCaT [13]": {"tested_on": "HaCaT", "assay": "Induction of ARE promoter activity in human HaCaT cells transfected with Nrf2-siRNA at 5 to 20 uM after 6 hrs by luciferase reporter gene assay", "type": "functional, cell-based"}, "HaCaT [14]": {"tested_on": "HaCaT", "assay": "Upregulation of HO-1 protein expression in human HaCaT cells transfected with Nrf2-siRNA at 20 uM after 6 hrs by Western blot analysis", "type": "functional, cell-based"}, "HaCaT [15]": {"tested_on": "HaCaT", "assay": "Upregulation of Nrf2 protein expression in human HaCaT cells transfected with Nrf2-siRNA at 20 uM after 6 hrs by Western blot analysis", "type": "functional, cell-based"}, "[16]": {"biological_target": "T2, MAP kinase p38 (Homo sapiens)", "assay": "Induction of MAPK p38 phosphorylation in human HaCaT cells at 20 uM up to 6 hrs by Western blot analysis", "type": "cell-based"}, "[17]": {"biological_target": "T2, MAP kinase p38 (Homo sapiens)", "assay": "Induction of MAPK p38 phosphorylation in human HaCaT cells at 20 uM after 2 hrs in presence of MAPK p38 inhibitor SB239063 by Western blot analysis", "type": "cell-based"}, "PC-9": {"tested_on": "PC-9", "assay": "Cytotoxicity against human PC9 cells at 10 uM", "type": "functional, cell-based"}, "HepG2": {"tested_on": "HepG2", "assay": "Cytotoxicity against human HepG2 cells at 10 uM", "type": "functional, cell-based"}, "A549": {"tested_on": "A549", "assay": "Cytotoxicity against human A549 cells at 10 uM", "type": "functional, cell-based"}, "[18]": {"biological_target": "T2, MAP kinase p38 (Homo sapiens)", "assay": "Activation of MAPK p38 in human HaCaT cells assessed as upregulation of Nrf2 protein expression in nucleus at 20 uM after 6 hrs in presence of MAPK p38 inhibitor SB239063 by Western blot analysis", "type": "cell-based"}, "[19]": {"biological_target": "T1, Nuclear factor erythroid 2-related factor 2 (Homo sapiens)", "assay": "Activation of Nrf2 in human HaCaT cells assessed as upregulation of HO-1 protein expression at 20 uM after 12 hrs in presence of MAPK p38 inhibitor SB239063 by Western blot analysis", "type": "cell-based"}}, "note": "Calls of active or inactive are those of the source. The rule behind the calls is not given here.", "data": [{"smiles": "COc1ccc2cc(N(C)C(=O)C3=NO[C@H]4[C@H](O)C=C[C@@H](Cl)[C@@]4(O)C3)c(=O)oc2c1OC", "values": [{"measurement": "Activity", "setting": "[1]", "value": "Active"}, {"measurement": "Activity", "setting": "HaCaT [2]", "value": "Non-Toxic"}, {"measurement": "Activity", "setting": "HaCaT [3]", "value": "Dose-dependent effect"}, {"measurement": "Activity", "setting": "[4]", "value": "Dose-dependent effect"}, {"measurement": "Activity", "setting": "[5]", "value": "Tde"}, {"measurement": "Activity", "setting": "[6]", "value": "Dose-dependent effect"}, {"measurement": "Activity", "setting": "[7]", "value": "Tde"}, {"measurement": "Activity", "setting": "[8]", "value": "Active"}, {"measurement": "Activity", "setting": "[9]", "value": "Dose-dependent effect"}, {"measurement": "Activity", "setting": "[10]", "value": "Active"}, {"measurement": "Activity", "setting": "[11]", "value": "Active"}, {"measurement": "Activity", "setting": "[12]", "value": "Dose-dependent effect"}, {"measurement": "Activity", "setting": "HaCaT [13]", "value": "inactive"}, {"measurement": "Activity", "setting": "HaCaT [14]", "value": "inactive"}, {"measurement": "Activity", "setting": "HaCaT [15]", "value": "inactive"}, {"measurement": "Activity", "setting": "[16]", "value": "Active"}, {"measurement": "Activity", "setting": "[17]", "value": "inactive"}, {"measurement": "Activity", "setting": "PC-9", "value": "Active"}, {"measurement": "Activity", "setting": "HepG2", "value": "Active"}, {"measurement": "Activity", "setting": "A549", "value": "Active"}, {"measurement": "Activity", "setting": "[18]", "value": "inactive"}, {"measurement": "Activity", "setting": "[19]", "value": "inactive"}]}, {"smiles": "COc1ccc2cc(NC(=O)C3=NO[C@H]4[C@H](O)C=C[C@@H](Cl)[C@@]4(O)C3)c(=O)oc2c1OC", "values": [{"measurement": "Activity", "setting": "PC-9", "value": "Active"}, {"measurement": "Activity", "setting": "HepG2", "value": "Active"}, {"measurement": "Activity", "setting": "A549", "value": "Active"}]}]}
